Source: patent US7595330B2, “Benzimidazole thiophene compounds” (SmithKline Beecham Corporation, priority 2005, dated 2009)

How the values were obtained:
[1] = test system: RKO; assay: Methylene blue growth inhibition assay, RKO; format: cell-based; conditions: Homo sapiens, methylene blue, 72 h, read-out: RKO IC50
Method: (§1) II. Methylene Blue Growth Inhibition Assay—Inhibition of Cell Proliferation by PLK1 Inhibitors
(§2) Generally, exponentially growing cell lines of different tumor origins, cultured in appropriate media containing 10% fetal bovine serum at 37° C. in a 5% CO2 incubator were plated at low density (less than 2000 cells/well) in 96-well plates. […]. Seventy two hours post-treatment, cell numbers were determined using 100 μl per well of methylene blue (Sigma M9140) (0.5% in 50:50 Ethanol:water). Stain was incubated at room temperature for 30 minutes before plates were rinsed and dye solubilized in 1% N-lauroyl sarcosine, sodium salt, (Sigma L5125, in PBS) (further details of a methylene blue assay are described below). Plates were read on a microplate reader, measuring the OD at 620 nm.
(§3) . The data are shown in Table 1 below and represent a compilation of several different experiments, each performed using the general parameters outlined above, although minor variations may have been employed in some instances.
(§4) In one assay, normal human foreskin fibroblasts (HFF), human colon (HCT116, RKO), lung (H460, A549) and breast (MCF7) tumor cell lines were cultured in high glucose DMEM (Life Technologies) containing 10% fetal bovine serum (FBS) at 37° C. in a humidified 5% CO2, 95% air incubator. Cells were harvested using trypsin/EDTA, counted using a haemocytometer, and plated in 100 μL of culture media per well, at the following densities, in a 96-well tissue culture plate (Falcon 3075): HFF 5,000 cells/well, HCT116 3,000 cells/well, RKO 2,500 cells/well, H460 2,500 cells/well, A549 5,000 cells/well, MCF7 4,000 cells/well. The next day, compounds were diluted in low glucose DMEM containing 100 μg/mL gentamicin, at twice the final required concentration, from 10 mM stock solutions in DMSO. 100 μL/well of these dilutions were added to the 100 μL of media currently in the assay plates. Medium containing 0.6% DMSO was added to control wells. The final concentration of DMSO in all wells was 0.3%. Cells were incubated at 37° C., 5% CO2 for 72 h. Medium was removed by aspiration. Cell biomass was estimated by staining cells with 80 μL per well methylene blue (Sigma M9140, 0.5% in 50:50 ethanol:water), and incubation at room temperature for 30-60 min. Stain was removed by aspiration and the plates rinsed by immersion in water, then air-dried. To release stain from the cells, 100 μL of solubilization solution was added (1% N-lauroyl sarcosine, Sodium salt, Sigma L5125, in PBS), and plates were shaken gently for about 30 min. Optical density at 620 nm was measured on a microplate reader. Percent inhibition of cell growth was calculated relative to vehicle treated control wells. […].

[2] = test system: human plasma proteins; assay: Protein binding to human plasma proteins using equilibrium dialysis; format: in vitro ADME; conditions: pH 7.4, equilibrium dialysis 6 h, 37° C.
Method: III. Determination of Protein Binding to Human Plasma Proteins Using Equilibrium Dialysis
96 Well Plate (High Throughput Dialysis): Stock solutions of compounds were spiked into human plasma at a target concentration of 2000 ng/mL. The mixture was inverted gently several times to insure homogeneity and triplicate 50 μL aliquots were collected to verify initial concentrations. Following assembly of dialysis plate (HTDialysis membrane strips, molecular weight cut off limit of 12,000-14,000 daltons), spiked plasma (150 μL) was placed in the donor compartment of the well and Phosphate Buffered Saline pH 7.4 (150 μL) in the receiver compartment. Eight wells were set up per compound and plasma type. Plate was placed in a 37° C. incubator on a plate shaker. Following the 6 h incubation period, the plate was removed. Single 50 μL aliquots from each donor and receiver compartment (per well) were analyzed. Sample analysis was by LC/MS/MS (results reported as Drug Peak Area/Internal Standard Peak Area ratios). Protein binding assay can also be performed using dialysis cells instead of HT Dialysis 96 well plates. In Table 1, % Protein Binding, +=>98%; ++=95-98%: +++=<95%.

[3] = test system: COLO205; assay: Cell-Titer-Glo inhibition of cell proliferation, COLO205; format: cell-based; conditions: Homo sapiens, COLO 205, CellTiter-Glo, 72 h
Method: (§5) V. Cell-Titer-Glo—Inhibition of Cell Proliferation by PLK1 Inhibitors
(§6) Exponentially growing cell lines of different tumor origins, cultured in appropriate media containing 10% fetal bovine serum at 37° C. in a 5% CO2 incubator were plated at low density (less than 2000 cells/well) in 96-well plates. Twenty four hours post-plating, cells were treated with different concentrations of test compounds ranging from 10 uM to 0.04 nM. Several wells were left untreated as a control. Seventy two hours post-treatment, cell numbers were determined using 50-100 ul per well of CellTiter-Glo (Promega #G7573). Plates were incubated at room temperature for 15 minutes and the chemiluminescent signal was read on the Victor V or Envison 2100 reader.
(§7) The Cell-Titer Glo data are shown in Table 2 below and represent a compilation of several different experiments, each performed using the general parameters outlined above, although minor variations may have been employed in some instances.

[4] = test system: normal human foreskin fibroblasts (HFF); assay: Methylene blue growth inhibition assay, HFF; format: cell-based; conditions: Fibroblast, methylene blue, 72 h, HFF normal fibroblasts, read-out: HFF IC50
Method: as §1, §2, §3, §4

[5] = test system: MCF7; assay: Cell-Titer-Glo inhibition of cell proliferation, MCF7; format: cell-based; conditions: Homo sapiens, CellTiter-Glo, 72 h
Method: as §5, §6, §7

[6] = test system: HCT116; assay: Methylene blue growth inhibition assay, HCT116; format: cell-based; conditions: Homo sapiens, HCT-116; methylene blue, 72 h, HCT116; read-out: HCT116 IC50
Method: as §1, §2, §3, §4

fraction unbound at 6 h, 2000 ng/mL [2]: > 0.05
IC50 [3]: < 500 nM
IC50 [5]: < 500 nM
IC50 [6]: < 100 nM
Structure (SMILES): C[C@@H](Oc1cc(-n2cnc3ccc(CN4CCN(C)CC4)cc32)sc1C(N)=O)c1ccccc1C(F)(F)F [Example 3, 5-{6-[(4-Methylpipiperazin-1-yl)methyl]-1H-benzimidazol-1-yl}-3-{(1R)-1-[2-(trifluoromethyl)phenyl]ethoxy}thiophene-2-carboxamide]
IC50 [1]: < 100 nM
IC50 [4]: < 100 nM
